Experimental data taken from patent publication US8361968B2 (Takeda Pharmaceutical Company Limited, priority 2002, dated 2013).
Square brackets hold non-standard residues; d marks the D form. Peptide text beside a SMILES is read from it. * marks the point of attachment. 1Nal = N[C@@H](Cc1cccc2ccccc12)C(=O)O; Arg(Me) = CNC(=N)NCCC[C@H](N)C(=O)O; Bta = N[C@@H](Cc1csc2ccccc12)C(=O)O; Cha = N[C@@H](CC1CCCCC1)C(=O)O; X3 = NC(=S)[C@H](Cc1ccccc1)N*

Legend:
hOT7T175 [1] = molecular target: T1, hOT7T175 (Homo sapiens, UniProt Q969F8, L364H); assay: hOT7T175 receptor binding activity: binding inhibition of Cy-5-labeled metastin (40-54) on hOT7T175-expressed CHO cells; design: expressed in transfected cells; host or cells: CHO cells
hOT7T175 [2] = molecular target: T1, hOT7T175; assay: Intracellular Ca ion level-increasing activity using FLIPR in hOT7T175/CHO; assay type: cell-based; design: expressed in transfected cells; host or cells: CHO/dhfr- cells, obtained from ATCC; details: relative, Metastin (1-54) = 1

T1 sequence (Q969F8 whole entry L364H): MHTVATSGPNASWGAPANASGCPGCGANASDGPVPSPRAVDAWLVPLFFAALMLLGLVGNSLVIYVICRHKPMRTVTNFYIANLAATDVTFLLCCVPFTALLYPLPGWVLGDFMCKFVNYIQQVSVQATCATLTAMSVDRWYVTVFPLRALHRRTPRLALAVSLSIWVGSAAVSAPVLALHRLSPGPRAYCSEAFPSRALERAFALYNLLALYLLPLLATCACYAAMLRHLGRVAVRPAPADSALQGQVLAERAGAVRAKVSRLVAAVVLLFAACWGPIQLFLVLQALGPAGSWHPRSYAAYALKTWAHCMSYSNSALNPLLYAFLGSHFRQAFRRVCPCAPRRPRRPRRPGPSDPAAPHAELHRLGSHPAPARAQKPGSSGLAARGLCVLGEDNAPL

Question: How did the IC50 (hOT7T175 [1]) turn out when `CC(C)C[C@H](NC(=O)CNC(=O)[C@H](Cc1ccccc1)NC(=O)[C@H](CO)NC(=O)[C@H](CC(N)=O)NC(=O)[C@H](Cc1c[nH]c2ccccc12)NC(=O)[C@H](CC(N)=O)NC(=O)[C@@H](N)Cc1ccc(O)cc1)C(=O)N[C@@H](CCCNC(=N)N)C(=O)N[C@@H](Cc1ccc(N)cc1)C(N)=O` [Compound No. 131] was run?
Answer: 120 nM

Question: And the “Specific Activity (intracellular Ca ion level-increasing activity)” value (hOT7T175 [2])?
Answer: 3

Question: `CC(C)C[C@H](NC(=O)CNC(=O)[C@H](Cc1ccccc1)NC(=O)[C@H](CO)NC(=O)[C@H](CC(N)=O)NC(=O)[C@H](Cc1c[nH]c2ccccc12)NC(=O)[C@H](CC(N)=O)NC(=O)[C@@H](N)Cc1ccc(O)cc1)C(=O)N[C@@H](CCCNC(=N)N)C(=O)N[C@@H](Cc1cccc2ccccc12)C(N)=O` [Compound No. 133] (H-YNWNSFGLR[1Nal]-NH2) was tested. Which IC50 (hOT7T175 [1]) did it give?
Answer: 330 nM

Question: And the “Specific Activity (intracellular Ca ion level-increasing activity)” value (hOT7T175 [2])?
Answer: 3

Question: Which results are given for `CNC(=N)NCCC[C@H](NC(=O)[C@H](CC(C)C)NC(=O)CNC(=O)[C@H](Cc1ccccc1)NC(=O)[C@H](CO)NC(=O)[C@H](CC(N)=O)NC(=O)[C@@H](Cc1c[nH]c2ccccc12)NC(=O)[C@H](CC(N)=O)NC(=O)[C@H](N)Cc1ccc(O)cc1)C(=O)N[C@@H](Cc1ccccc1)C(N)=O` [Compound No. 142, D-Tyr-Asn-D-Trp-Asn-Ser-Phe-Gly-Leu-Arg(Me)-Phe-NH2]?
Answer: IC50 (hOT7T175 [1]): 26 nM; Specific Activity (intracellular Ca ion level-increasing activity) (hOT7T175 [2]): 2

Question: `CNC(=N)NCCC[C@H](NC(=O)[C@H](CC(C)C)NC(=O)CNC(=O)[C@H](Cc1ccccc1)NC(=O)[C@H](CO)NC(=O)[C@H](CC(N)=O)NC(=O)[C@@H](Cc1c[nH]c2ccccc12)NC(=O)[C@H](CC(N)=O)NC(=O)[C@@H](N)Cc1ccc(O)cc1)C(=O)N[C@@H](Cc1ccccc1)C(N)=O` [Compound No. 143, Tyr-Asn-D-Trp-Asn-Ser-Phe-Gly-Leu-Arg(Me)-Phe-NH2] was tested. Which IC50 (hOT7T175 [1]) did it give?
Answer: 7.7 nM

Question: And the “Specific Activity (intracellular Ca ion level-increasing activity)” value (hOT7T175 [2])?
Answer: 3

Question: `CC(C)C[C@H](NC(=O)CNC(=O)[C@H](Cc1ccccc1)NC(=O)[C@H](CO)NC(=O)[C@H](CC(N)=O)NC(=O)[C@H](Cc1c[nH]c2ccccc12)NC(=O)[C@H](CC(N)=O)NC(=O)[C@H](N)Cc1ccc(O)cc1)C(=O)N[C@@H](CCCNC(=N)N)C(=O)N[C@@H](Cc1ccccc1)C(N)=S` [Compound No. 146] (H-[dY]NWNSFGLR-X3) was tested. Which IC50 (hOT7T175 [1]) did it give?
Answer: 370 nM

Question: And the “Specific Activity (intracellular Ca ion level-increasing activity)” value (hOT7T175 [2])?
Answer: 10

Question: How did the IC50 (hOT7T175 [1]) turn out when `CC(C)C[C@H](NC(=O)CNC(=O)[C@H](Cc1cccc2ccccc12)NC(=O)[C@H](CO)NC(=O)[C@H](CC(N)=O)NC(=O)[C@H](Cc1c[nH]c2ccccc12)NC(=O)[C@H](CC(N)=O)NC(=O)[C@@H](N)Cc1ccc(O)cc1)C(=O)N[C@@H](CCCNC(=N)N)C(=O)N[C@@H](Cc1ccccc1)C(N)=O` [Compound No. 151, Tyr-Asn-Trp-Asn-Ser-Nal(1)-Gly-Leu-Arg-Phe-NH2] (H-YNWNS[1Nal]GLRF-NH2; N-terminus assumed) was run?
Answer: 300 nM

Question: And the “Specific Activity (intracellular Ca ion level-increasing activity)” value (hOT7T175 [2])?
Answer: 1

Question: Which IC50 (hOT7T175 [1]) does the source give for `CC(C)C[C@H](NC(=O)CNC(=O)[C@H](CC1CCCCC1)NC(=O)[C@H](CO)NC(=O)[C@H](CC(N)=O)NC(=O)[C@H](Cc1c[nH]c2ccccc12)NC(=O)[C@H](CC(N)=O)NC(=O)[C@@H](N)Cc1ccc(O)cc1)C(=O)N[C@@H](CCCNC(=N)N)C(=O)N[C@@H](Cc1ccccc1)C(N)=O` [Compound No. 156, Tyr-Asn-Trp-Asn-Ser-Cha-Gly-Leu-Arg-Phe-NH2] (H-YNWNS[Cha]GLRF-NH2) here?
Answer: 49 nM

Question: And the “Specific Activity (intracellular Ca ion level-increasing activity)” value (hOT7T175 [2])?
Answer: 2

Question: `CNC(=N)NCCC[C@H](NC(=O)[C@H](CC(C)C)NC(=O)CNC(=O)[C@H](Cc1ccccc1)NC(=O)[C@H](CO)NC(=O)[C@H](CC(N)=O)NC(=O)[C@H](CO)NC(=O)[C@H](CC(N)=O)NC(=O)[C@H](N)Cc1ccc(O)cc1)C(=O)N[C@@H](Cc1ccccc1)C(N)=O` [Compound No. 170] (H-[dY]NSNSFGL[Arg(Me)]F-NH2; N-terminus assumed) was tested. Which IC50 (hOT7T175 [1]) did it give?
Answer: 260 nM

Question: What about the “Specific Activity (intracellular Ca ion level-increasing activity)” value (hOT7T175 [2]) of the same compound?
Answer: 1

Question: Which results are given for `CNC(=N)NCCC[C@H](NC(=O)[C@H](CC(C)C)NC(=O)CNC(=O)[C@H](Cc1ccccc1)NC(=O)[C@H](CO)NC(=O)[C@H](CC(N)=O)NC(=O)[C@H](CC1CCCCC1)NC(=O)[C@H](CC(N)=O)NC(=O)[C@H](N)Cc1ccc(O)cc1)C(=O)N[C@@H](Cc1ccccc1)C(N)=O` [Compound No. 171, D-Tyr-Asn-Cha-Asn-Ser-Phe-Gly-Leu-Arg(Me)-Phe-NH2] (H-[dY]N[Cha]NSFGL[Arg(Me)]F-NH2)?
Answer: IC50 (hOT7T175 [1]): 110 nM; Specific Activity (intracellular Ca ion level-increasing activity) (hOT7T175 [2]): 10

Question: Which results are given for `CNC(=N)NCCC[C@H](NC(=O)[C@H](CC(C)C)NC(=O)CNC(=O)[C@H](CC1CCCCC1)NC(=O)[C@H](CO)NC(=O)[C@H](CC(N)=O)NC(=O)[C@H](CC1CCCCC1)NC(=O)[C@H](CC(N)=O)NC(=O)[C@H](N)Cc1ccc(O)cc1)C(=O)N[C@@H](Cc1c[nH]c2ccccc12)C(N)=O` [Compound No. 182, D-Tyr-Asn-Cha-Asn-Ser-Cha-Gly-Leu-Arg(Me)-Trp-NH2] (H-[dY]N[Cha]NS[Cha]GL[Arg(Me)]W-NH2)?
Answer: IC50 (hOT7T175 [1]): 98 nM; Specific Activity (intracellular Ca ion level-increasing activity) (hOT7T175 [2]): 5

Question: How did the IC50 (hOT7T175 [1]) turn out when `CC(C)C[C@H](NC(=O)CNC(=O)[C@H](Cc1ccccc1)NC(=O)[C@H](CO)NC(=O)[C@H](CC(N)=O)NC(=O)[C@H](Cc1c[nH]c2ccccc12)NC(=O)[C@H](CC(N)=O)NC(=O)[C@@H](N)Cc1ccc(O)cc1)C(=O)N[C@@H](CCCNC(=N)N)C(=O)N[C@@H](Cc1csc2ccccc12)C(N)=O` [Compound No. 189] (H-YNWNSFGLR[Bta]-NH2; N-terminus assumed) was run?
Answer: 230 nM

Question: What about the “Specific Activity (intracellular Ca ion level-increasing activity)” value (hOT7T175 [2]) of the same compound?
Answer: 10

Question: Which IC50 (hOT7T175 [1]) does the source give for `CC(C)C[C@H](NC(=O)CNC(=O)[C@H](Cc1ccccc1)NC(=O)[C@H](CO)NC(=O)[C@H](CC(N)=O)NC(=O)[C@H](Cc1c[nH]c2ccccc12)NC(=O)[C@H](CC(N)=O)NC(=O)[C@@H](N)Cc1ccc(O)cc1)C(=O)N[C@@H](CCCNC(=N)N)C(=O)N[C@@H](Cc1ccc(Cl)c(Cl)c1)C(N)=O` [Compound No. 199] here?
Answer: 470 nM

Question: What about the “Specific Activity (intracellular Ca ion level-increasing activity)” value (hOT7T175 [2]) of the same compound?
Answer: 3

Question: For `CC(C)C[C@H](NC(=O)CNC(=O)[C@H](Cc1ccccc1)NC(=O)[C@H](CO)NC(=O)[C@H](CC(N)=O)NC(=O)[C@H](Cc1c[nH]c2ccccc12)NC(=O)[C@H](CC(N)=O)NC(=O)[C@@H](N)Cc1ccc(O)cc1)C(=O)N[C@@H](CCCNC(=N)N)C(=O)N[C@@H](Cc1cccc(C(F)(F)F)c1)C(N)=O` [Compound No. 200], which IC50 (hOT7T175 [1]) is on record?
Answer: 340 nM

Question: And the “Specific Activity (intracellular Ca ion level-increasing activity)” value (hOT7T175 [2])?
Answer: 10

Question: How did the IC50 (hOT7T175 [1]) turn out when `CNC(=N)NCCC[C@H](NC(=O)[C@H](CC(C)C)NC(=O)CNC(=O)[C@H](Cc1ccccc1)NC(=O)[C@H](CO)NC(=O)[C@H](CC(N)=O)NC(=O)[C@@H](NC(=O)[C@H](CC(N)=O)NC(=O)[C@H](N)Cc1ccc(O)cc1)[C@@H](C)O)C(=O)N[C@@H](Cc1ccccc1)C(N)=O` [Compound No. 205] (H-[dY]NTNSFGL[Arg(Me)]F-NH2) was run?
Answer: 260 nM

Question: What about the “Specific Activity (intracellular Ca ion level-increasing activity)” value (hOT7T175 [2]) of the same compound?
Answer: 10

Question: Which results are given for `CNC(=N)NCCC[C@H](NC(=O)[C@@H](NC(=O)CNC(=O)[C@H](Cc1ccccc1)NC(=O)[C@H](CO)NC(=O)[C@H](CC(N)=O)NC(=O)[C@H](Cc1c[nH]c2ccccc12)NC(=O)[C@H](CC(N)=O)NC(=O)[C@H](N)Cc1ccc(O)cc1)C(C)C)C(=O)N[C@@H](Cc1ccccc1)C(N)=O` [Compound No. 213] (H-[dY]NWNSFGV[Arg(Me)]F-NH2)?
Answer: IC50 (hOT7T175 [1]): 190 nM; Specific Activity (intracellular Ca ion level-increasing activity) (hOT7T175 [2]): 2
